# Reference: patent US20240139211A1, “METHODS AND COMPOSITIONS FOR TREATING AMYOTROPHIC LATERAL SCLEROSIS” (Amylyx Pharmaceuticals, Inc., priority 2022, published 2024)
# Read-outs that look alike come from different tables or passages of the source.
# Columns and labels:
# [1] = target: OATP1B3 (Homo sapiens, UniProt Q9NPD5); assay: in vitro
# [2] = test system: CYP3A4 mRNA; assay: in vitro; details: human, hepatocyte cultures
# [3] = test system: CYP3A4/5; assay: CYP3A4/5 enzyme activity induction in hepatocyte cultures
# [4] = target: T1, hrCYP2C8 (Homo sapiens, UniProt P10632); assay: CYP reaction phenotyping with hrCYP2C8 (% remaining); format: in vitro ADME; details: for % Remaining of TA: hrCYP2C8 20 pmol CYP/mL, 5 μM TA, PB and TUDCA co-incubated
# T1 sequence (P10632 1-490): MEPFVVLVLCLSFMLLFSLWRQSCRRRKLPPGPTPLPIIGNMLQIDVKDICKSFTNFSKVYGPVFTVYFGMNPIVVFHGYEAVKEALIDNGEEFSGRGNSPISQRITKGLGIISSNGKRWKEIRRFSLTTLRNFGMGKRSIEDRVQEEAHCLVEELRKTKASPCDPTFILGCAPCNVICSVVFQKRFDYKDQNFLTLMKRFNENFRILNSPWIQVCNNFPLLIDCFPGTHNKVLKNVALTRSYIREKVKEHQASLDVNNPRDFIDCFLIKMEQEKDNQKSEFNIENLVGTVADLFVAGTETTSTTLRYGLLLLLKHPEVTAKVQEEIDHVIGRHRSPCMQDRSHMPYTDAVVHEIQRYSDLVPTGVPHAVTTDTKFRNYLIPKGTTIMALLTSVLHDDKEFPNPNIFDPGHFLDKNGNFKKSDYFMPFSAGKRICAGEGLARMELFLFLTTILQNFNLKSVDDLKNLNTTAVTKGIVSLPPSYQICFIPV
# [5] = male, CD (Sprague-Dawley) IGS, rat, in vivo
# [6] = target: T2, OCT2 (Homo sapiens, UniProt O15244); assay: in vitro
# T2 sequence (O15244 1-555): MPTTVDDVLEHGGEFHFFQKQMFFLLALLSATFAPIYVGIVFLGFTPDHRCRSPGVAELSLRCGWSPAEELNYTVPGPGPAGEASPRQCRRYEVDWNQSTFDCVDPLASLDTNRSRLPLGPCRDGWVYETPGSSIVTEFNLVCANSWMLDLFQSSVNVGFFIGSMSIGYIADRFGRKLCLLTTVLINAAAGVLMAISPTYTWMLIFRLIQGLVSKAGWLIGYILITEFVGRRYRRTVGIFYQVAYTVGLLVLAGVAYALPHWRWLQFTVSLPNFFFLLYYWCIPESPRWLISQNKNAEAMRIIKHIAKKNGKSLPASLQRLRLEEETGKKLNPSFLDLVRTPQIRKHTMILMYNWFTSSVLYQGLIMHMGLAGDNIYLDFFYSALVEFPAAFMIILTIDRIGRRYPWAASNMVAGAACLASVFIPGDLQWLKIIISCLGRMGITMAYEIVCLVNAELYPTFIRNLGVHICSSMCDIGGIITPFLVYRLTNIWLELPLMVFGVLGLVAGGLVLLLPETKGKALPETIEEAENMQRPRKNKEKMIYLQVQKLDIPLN
# [7] = CYP reaction phenotyping, CYP control (negative control without CYP enzymes), % remaining; format: in vitro ADME; details: CYP Control 0.1 mg protein/mL, 5 μM TA, PB and TUDCA co-incubated
# Method: The percent remaining of TA was calculated using the following equation: […]
# [8] = target: CYPs in human liver microsomes (HLM) (Homo sapiens, UniProt P10635); details: 5 min
# Chain of CYPs in human liver microsomes (HLM) (Homo sapiens, UniProt P10635) (P10635 whole entry): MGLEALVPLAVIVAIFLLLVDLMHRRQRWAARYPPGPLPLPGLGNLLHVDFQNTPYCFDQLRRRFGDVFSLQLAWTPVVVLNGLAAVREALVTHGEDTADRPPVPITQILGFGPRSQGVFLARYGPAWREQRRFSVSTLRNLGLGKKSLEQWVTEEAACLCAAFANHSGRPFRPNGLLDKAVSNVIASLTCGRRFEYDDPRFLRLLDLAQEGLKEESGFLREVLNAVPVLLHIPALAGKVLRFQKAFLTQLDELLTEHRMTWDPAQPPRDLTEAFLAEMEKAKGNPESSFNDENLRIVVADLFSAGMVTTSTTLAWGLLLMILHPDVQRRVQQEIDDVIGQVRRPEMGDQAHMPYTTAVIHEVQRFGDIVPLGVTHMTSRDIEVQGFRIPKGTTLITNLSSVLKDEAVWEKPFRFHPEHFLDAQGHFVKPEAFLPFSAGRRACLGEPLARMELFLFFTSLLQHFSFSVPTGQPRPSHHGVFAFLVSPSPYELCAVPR
# [9] = target: CYPs in human liver microsomes (HLM) (Homo sapiens, UniProt P11712); details: 5 min
# Chain of CYPs in human liver microsomes (HLM) (Homo sapiens, UniProt P11712) (P11712 whole entry): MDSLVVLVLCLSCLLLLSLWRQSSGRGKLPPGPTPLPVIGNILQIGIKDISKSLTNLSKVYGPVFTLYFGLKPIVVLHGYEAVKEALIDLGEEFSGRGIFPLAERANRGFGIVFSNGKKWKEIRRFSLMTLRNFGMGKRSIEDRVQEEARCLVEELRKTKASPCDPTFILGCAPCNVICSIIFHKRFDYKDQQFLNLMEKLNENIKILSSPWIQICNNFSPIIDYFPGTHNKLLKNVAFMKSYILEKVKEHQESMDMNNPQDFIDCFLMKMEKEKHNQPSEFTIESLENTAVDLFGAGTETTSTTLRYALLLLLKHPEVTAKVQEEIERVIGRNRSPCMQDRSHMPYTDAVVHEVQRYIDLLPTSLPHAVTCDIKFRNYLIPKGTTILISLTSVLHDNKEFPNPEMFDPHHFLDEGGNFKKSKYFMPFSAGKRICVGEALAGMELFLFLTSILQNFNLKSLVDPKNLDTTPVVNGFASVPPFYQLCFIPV
# [10] = target: T3, CYPs in human liver microsomes (HLM) (Homo sapiens, UniProt P20813); details: 1 h
# T3 sequence (P20813 1-491): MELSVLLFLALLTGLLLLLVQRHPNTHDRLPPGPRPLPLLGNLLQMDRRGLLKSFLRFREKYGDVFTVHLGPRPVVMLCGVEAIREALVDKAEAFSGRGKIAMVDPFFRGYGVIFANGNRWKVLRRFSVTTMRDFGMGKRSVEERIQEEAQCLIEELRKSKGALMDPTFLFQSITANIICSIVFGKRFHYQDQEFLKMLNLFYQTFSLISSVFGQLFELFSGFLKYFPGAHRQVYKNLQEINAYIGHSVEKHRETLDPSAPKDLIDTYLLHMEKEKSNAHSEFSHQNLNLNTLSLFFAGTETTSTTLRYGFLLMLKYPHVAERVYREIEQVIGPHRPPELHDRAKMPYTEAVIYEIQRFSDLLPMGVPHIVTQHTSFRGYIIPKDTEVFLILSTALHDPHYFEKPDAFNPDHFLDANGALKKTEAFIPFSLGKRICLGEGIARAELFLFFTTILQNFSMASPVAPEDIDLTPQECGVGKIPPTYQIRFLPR
# [11] = test system: CYPs in human liver microsomes (HLM)
# [12] = target: T4, CYPs in human liver microsomes (HLM) (Homo sapiens, UniProt P10632); assay: CYP reaction phenotyping in HLM with chemical inhibitors (% remaining); details: +NADPH +montelukast (CYP2C8)
# T4 sequence (P10632 1-490): T1 sequence (P10632 1-490)
# [13] = target: T3, CYPs in human liver microsomes (HLM); assay: as above; details: +NADPH +thio-TEPA (CYP2B6)
# Chain of OATP1B3 (Q9NPD5 whole entry): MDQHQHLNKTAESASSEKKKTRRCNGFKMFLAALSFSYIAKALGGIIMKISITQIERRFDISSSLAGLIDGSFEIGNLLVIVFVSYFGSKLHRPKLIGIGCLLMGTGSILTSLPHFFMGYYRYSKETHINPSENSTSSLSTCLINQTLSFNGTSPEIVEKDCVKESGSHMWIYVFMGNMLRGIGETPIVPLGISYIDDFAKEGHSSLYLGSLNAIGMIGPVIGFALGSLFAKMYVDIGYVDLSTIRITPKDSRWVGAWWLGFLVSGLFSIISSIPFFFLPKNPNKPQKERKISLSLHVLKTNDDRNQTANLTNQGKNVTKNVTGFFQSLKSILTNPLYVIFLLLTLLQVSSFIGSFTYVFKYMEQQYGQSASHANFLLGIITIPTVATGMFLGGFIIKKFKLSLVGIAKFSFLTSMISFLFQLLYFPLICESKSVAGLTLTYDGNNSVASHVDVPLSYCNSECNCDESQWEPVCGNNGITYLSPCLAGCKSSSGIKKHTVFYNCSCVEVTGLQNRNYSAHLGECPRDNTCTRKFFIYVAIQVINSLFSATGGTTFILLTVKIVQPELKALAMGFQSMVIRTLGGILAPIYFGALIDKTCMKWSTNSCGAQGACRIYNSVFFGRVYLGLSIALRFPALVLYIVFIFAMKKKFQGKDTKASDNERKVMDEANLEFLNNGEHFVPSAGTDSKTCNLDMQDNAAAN
molecule,measurement,setting,value
"C[C@H](CCC(=O)NCC(=O)O)[C@H]1CC[C@H]2[C@@H]3[C@@H](O)C[C@@H]4C[C@H](O)CC[C@]4(C)[C@H]3CC[C@]12C [Glycoursodeoxycholic acid, glycoursodeoxycholic acid]",potency estimated from few doses,[1],< 0.1 mM
same,fold induction at 72 h,[2],2.44
same,Maximum fold induction of CYP3A4/5 activity,[3]; Donor 1,1.34 fold
same,Maximum fold induction of CYP3A4/5 activity,[3]; Donor 2,1.98 fold
same,Maximum fold induction of CYP3A4/5 activity,[3]; Donor 3,2.70 fold
"O=C(O)CCCc1ccccc1 [PB, sodium phenylbutyrate]",% remaining after 60 minutes,"[4]; human, 1 h, 5 µM, pH 7.4",greater than 90%
same,Time through which plasma concentrations remained quantifiable,[5],4 h
"O=C(O)Cc1ccccc1 [Phenylacetic acid, phenylacetic acid]",potency estimated from few doses,[6],< 7.5 mM
tauroursodeoxycholic acid [TUDCA],% Remaining of TA,[4]; 0 min,100%
same,% Remaining of TA,[4]; 5 min,97.1%
same,% Remaining of TA,[4]; 10 min,99.3%
same,% Remaining of TA,[4]; 20 min,101%
same,% Remaining of TA,[4]; 30 min,101%
same,% Remaining of TA,[4]; 60 min,99.8%
same,% Remaining of TA,[7]; 0 min,100%
same,% Remaining of TA,[7]; 5 min,99.4%
same,% Remaining of TA,[7]; 10 min,97.9%
same,% Remaining of TA,[7]; 20 min,95.9%
same,% Remaining of TA,[7]; 30 min,93.7%
same,% Remaining of TA,[7]; 60 min,101%
same,% remaining of TA in HLM,[8],101%
same,% remaining of TA in HLM,[9],102%
same,% remaining of TA in HLM,[10],102%
same,% remaining of TA in HLM,[11]; 5 min,103%
same,% remaining of TA in HLM,[11]; 1 h,105%
same,% remaining of TA in HLM,[12]; 5 min,101%
same,% remaining of TA in HLM,[12]; 10 min,103%
same,% remaining of TA in HLM,[12]; 20 min,95.5%
same,% remaining of TA in HLM,[12]; 30 min,105%
same,% remaining of TA in HLM,[12]; 60 min,97.7%
same,% remaining of TA in HLM,[13]; 5 min,112%
same,% remaining of TA in HLM,[13]; 10 min,112%
same,% remaining of TA in HLM,[13]; 20 min,122%
same,% remaining of TA in HLM,[13]; 30 min,116%
